# Source: ChEMBL document CHEMBL1201862, “PubChem BioAssay data set” (2004)
#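 48-hour exposure; five concentrations; linearly interpolated endpoints. GI50 is the concentration that inhibits growth by half.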 Calls of active or inactive are those of the source. Rule as the data show it: active = GI50 up to about 1.1 µM and inactive = higher.
# How the values were obtained:
# Assay in all cases: NCI anticancer screen, dose series, 48 h
# [1] = system: NCI-H460
# [2] = system: SF-295
# [3] = system: LXFL 529
# [4] = system: HL-60
# [5] = system: SF-268
# [6] = system: DMS-273
# [7] = system: SK-MEL-5
# [8] = system: SK-MEL-2
# [9] = system: HT-29
# [10] = system: KM-20L2
# [11] = system: SF-539
# [12] = system: OVCAR-8
# [13] = system: SNB-78
# [14] = system: SK-OV-3
# [15] = system: HCT-15
# [16] = system: NCI-H23
# [17] = system: UO-31
# [18] = system: UACC-62
# [19] = system: K562
# [20] = system: Malme-3M
# [21] = system: RPMI-8226
# [22] = system: SW-620
# [23] = system: A498
# [24] = system: NCI-H522
# [25] = system: COLO 205
# [26] = system: NCI-H226
# [27] = system: ACHN
# [28] = system: SNB-19
# [29] = system: SN12C
# [30] = system: M14
# [31] = system: EKVX
# [32] = system: TK-10
# [33] = system: DMS-114
# [34] = system: MOLT-4
# [35] = system: SK-MEL-28
# [36] = system: U-251
# [37] = system: OVCAR-3
# [38] = system: XF498
# [39] = system: CCRF-CEM
# [40] = system: CAKI-1
# [41] = system: SNB-75
# [42] = system: LOX IMVI
# [43] = system: HOP-18
# [44] = system: HOP-92
# [45] = system: M19-MEL
# [46] = system: IGROV-1
# [47] = system: UACC-257
# [48] = system: DLD-1
# [49] = system: A549
# [50] = system: MCF7
# [51] = system: OVCAR-4
# [52] = system: NCI/ADR-RES
# [53] = system: KM12
# [54] = system: RXF 393
# [55] = system: HOP-62
# [56] = system: HCC 2998
# [57] = system: OVCAR-5
# [58] = system: HCT-116
# [59] = system: 786-0
structure (smiles),measurement,setting,value
COc1cc2c(cc1OC)C(Cl)C(c1ccc(Cl)c(Cl)c1)=C2Cl (stereo unspecified),GI50,[1],4.09 µM (inactive)
same,GI50,[2],9.82 µM (inactive)
same,GI50,[3],5.15 µM (inactive)
same,GI50,[4],2.47 µM (inactive)
same,GI50,[5],6.21 µM (inactive)
same,GI50,[6],3.86 µM (inactive)
same,GI50,[7],5.94 µM (inactive)
same,GI50,[8],6.84 µM (inactive)
same,GI50,[9],4.38 µM (inactive)
same,GI50,[10],8.71 µM (inactive)
same,GI50,[11],10.3 µM (inactive)
same,GI50,[12],6.62 µM (inactive)
same,GI50,[13],5.56 µM (inactive)
same,GI50,[14],15.5 µM (inactive)
same,GI50,[15],3.33 µM
same,GI50,[16],44.6 µM (inactive)
same,GI50,[17],10.6 µM (inactive)
same,GI50,[18],4.37 µM (inactive)
same,GI50,[19],3.22 µM (inactive)
same,GI50,[20],12.6 µM (inactive)
same,GI50,[21],3.14 µM (inactive)
same,GI50,[22],6.18 µM (inactive)
same,GI50,[23],16.9 µM (inactive)
same,GI50,[24],66.4 µM (inactive)
same,GI50,[25],10.7 µM (inactive)
same,GI50,[26],8.99 µM (inactive)
same,GI50,[27],10.2 µM (inactive)
same,GI50,[28],15.6 µM (inactive)
same,GI50,[29],9.27 µM (inactive)
same,GI50,[30],9.4 µM (inactive)
same,GI50,[31],18 µM (inactive)
same,GI50,[32],20.7 µM (inactive)
same,GI50,[33],3.42 µM (inactive)
same,GI50,[34],2.92 µM (inactive)
same,GI50,[35],12 µM (inactive)
same,GI50,[36],4.71 µM (inactive)
same,GI50,[37],4.18 µM (inactive)
same,GI50,[38],< 0.01 µM (active)
same,GI50,[39],3.02 µM (inactive)
same,GI50,[40],11.2 µM (inactive)
same,GI50,[41],8.79 µM (inactive)
same,GI50,[42],2.24 µM (inactive)
same,GI50,[43],12.9 µM (inactive)
same,GI50,[44],4.15 µM (inactive)
same,GI50,[45],9.02 µM (inactive)
same,GI50,[46],10.7 µM (inactive)
CCOC(=O)/C(O)=C1\C(=O)N(C)C(=O)C1c1cccc(OC)c1 (stereo unspecified),GI50,[1],> 100 µM (inactive)
same,GI50,[2],> 100 µM (inactive)
same,GI50,[47],> 100 µM (inactive)
same,GI50,[4],> 100 µM (inactive)
same,GI50,[5],> 100 µM (inactive)
same,GI50,[6],> 100 µM (inactive)
same,GI50,[7],> 100 µM (inactive)
same,GI50,[8],> 100 µM (inactive)
same,GI50,[9],> 100 µM (inactive)
same,GI50,[10],> 100 µM (inactive)
same,GI50,[11],> 100 µM (inactive)
same,GI50,[12],> 100 µM (inactive)
same,GI50,[13],> 100 µM (inactive)
same,GI50,[14],> 100 µM (inactive)
same,GI50,[15],> 100 µM
same,GI50,[16],> 100 µM (inactive)
same,GI50,[17],> 100 µM (inactive)
same,GI50,[48],> 100 µM (inactive)
same,GI50,[18],> 100 µM (inactive)
same,GI50,[19],> 100 µM (inactive)
same,GI50,[49],> 100 µM (inactive)
same,GI50,[20],> 100 µM (inactive)
same,GI50,[21],> 100 µM (inactive)
same,GI50,[22],> 100 µM (inactive)
same,GI50,[23],95.3 µM (inactive)
same,GI50,[24],> 100 µM (inactive)
same,GI50,[25],> 100 µM (inactive)
same,GI50,[26],> 100 µM (inactive)
same,GI50,[50],> 100 µM (inactive)
same,GI50,[51],> 100 µM (inactive)
same,GI50,[52],> 100 µM (inactive)
same,GI50,[28],> 100 µM (inactive)
same,GI50,[53],> 100 µM (inactive)
same,GI50,[54],> 100 µM (inactive)
same,GI50,[29],> 100 µM (inactive)
same,GI50,[31],> 100 µM (inactive)
same,GI50,[33],> 100 µM (inactive)
same,GI50,[34],> 100 µM (inactive)
same,GI50,[35],> 100 µM (inactive)
same,GI50,[36],> 100 µM (inactive)
same,GI50,[37],> 53.3 µM (inactive)
same,GI50,[38],> 100 µM (inactive)
same,GI50,[39],> 100 µM (inactive)
same,GI50,[40],> 100 µM (inactive)
same,GI50,[41],> 100 µM (inactive)
same,GI50,[42],> 100 µM (inactive)
same,GI50,[43],> 100 µM (inactive)
same,GI50,[55],> 100 µM (inactive)
same,GI50,[56],> 100 µM (inactive)
same,GI50,[44],> 100 µM (inactive)
same,GI50,[57],> 100 µM (inactive)
same,GI50,[45],> 100 µM (inactive)
same,GI50,[58],> 100 µM (inactive)
same,GI50,[46],> 100 µM (inactive)
O=c1[nH]c(Br)nc2c(N3CCCCC3)c[nH]c12,GI50,[1],> 100 µM (inactive)
same,GI50,[2],> 100 µM (inactive)
same,GI50,[47],> 100 µM (inactive)
same,GI50,[3],> 100 µM (inactive)
same,GI50,[4],> 100 µM (inactive)
same,GI50,[5],> 100 µM (inactive)
same,GI50,[6],> 100 µM (inactive)
same,GI50,[7],> 100 µM (inactive)
same,GI50,[8],> 100 µM (inactive)
same,GI50,[9],> 100 µM (inactive)
same,GI50,[10],> 100 µM (inactive)
same,GI50,[11],> 100 µM (inactive)
same,GI50,[12],> 100 µM (inactive)
same,GI50,[13],> 100 µM (inactive)
same,GI50,[14],> 100 µM (inactive)
same,GI50,[15],> 100 µM
same,GI50,[16],> 100 µM (inactive)
same,GI50,[17],> 100 µM (inactive)
same,GI50,[48],> 100 µM (inactive)
same,GI50,[18],> 100 µM (inactive)
same,GI50,[19],> 100 µM (inactive)
same,GI50,[49],> 100 µM (inactive)
same,GI50,[20],> 100 µM (inactive)
same,GI50,[21],> 100 µM (inactive)
same,GI50,[22],> 100 µM (inactive)
same,GI50,[23],> 100 µM (inactive)
same,GI50,[24],28.3 µM (inactive)
same,GI50,[25],> 100 µM (inactive)
same,GI50,[26],> 100 µM (inactive)
same,GI50,[51],> 100 µM (inactive)
same,GI50,[27],> 100 µM (inactive)
same,GI50,[28],> 100 µM (inactive)
same,GI50,[53],> 100 µM (inactive)
same,GI50,[54],> 100 µM (inactive)
same,GI50,[29],> 100 µM (inactive)
same,GI50,[30],> 100 µM (inactive)
same,GI50,[31],> 100 µM (inactive)
same,GI50,[32],> 100 µM (inactive)
same,GI50,[33],> 100 µM (inactive)
same,GI50,[34],29.5 µM (inactive)
same,GI50,[35],> 100 µM (inactive)
same,GI50,[36],> 100 µM (inactive)
same,GI50,[37],> 100 µM (inactive)
same,GI50,[38],> 100 µM (inactive)
same,GI50,[39],> 100 µM (inactive)
same,GI50,[40],> 100 µM (inactive)
same,GI50,[41],> 100 µM (inactive)
same,GI50,[42],> 100 µM (inactive)
same,GI50,[43],> 100 µM (inactive)
same,GI50,[55],> 100 µM (inactive)
same,GI50,[44],> 100 µM (inactive)
same,GI50,[57],> 100 µM (inactive)
same,GI50,[59],> 100 µM (inactive)
same,GI50,[45],> 100 µM (inactive)
same,GI50,[58],> 100 µM (inactive)
same,GI50,[46],> 100 µM (inactive)
